According to patent publication US7612099B2, “Vinylogous acid derivatives” (Hoffmann-La Roche Inc., priority 2005, dated 2009):

Each molecule was assayed against T1, Chymase purified form human skin mast cells (Homo sapiens, UniProt P23946) (assay: chymase peptide substrate assay (AAPF-AMC fluorescence)). Details: 0.02 mM AAPF-substrate, 1 nM Chymase, pH 7.4, room temperature, 30 min pre-incubation.
T1 construct: Chymase purified form human skin mast cells was obtained from Calbiochem; purchased Calbiochem (Merck Biosciences, San Diego, Calif., USA); host or cells: human skin mast cells (tissue-derived, not recombinant)
T1 sequence (P23946 22-247): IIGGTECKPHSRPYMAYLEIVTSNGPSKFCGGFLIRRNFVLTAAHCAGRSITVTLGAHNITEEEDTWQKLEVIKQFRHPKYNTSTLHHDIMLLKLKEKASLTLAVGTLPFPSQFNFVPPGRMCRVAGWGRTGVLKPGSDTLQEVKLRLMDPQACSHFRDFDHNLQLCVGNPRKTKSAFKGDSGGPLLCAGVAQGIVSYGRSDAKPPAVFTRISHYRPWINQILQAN
Format: biochemical
Procedure: The peptide was synthesized with a purity of 95% from Bachem, Bubendorf, Switzerland). Chymase purified form human skin mast cells was obtained from Calbiochem (Merck Biosciences, San Diego, Calif., USA). The assay buffer was 0.15 M NaCl, 0.05M, Tris HCl, 0.05% CHAPS (3-[(3-Cholamidopropyl)-dimethylammonio]-1-propane sulphonate), 0.1 mg/ml Heparin (Heparin sodium, Sigma, porcine intestinal mucosa), 0.02 mM AAPF-substrate, 1 nM Chymase at pH 7.4. The assay was performed in 96-well plates (Packard Optiplate), with a 0.05 ml volume at room temperature. Chymase activity was indicated by the initial rate of increase in fluorescence at 340/440 nm (excitation/emission) from free 7-amino-4-methylcoumarin released from the substrate. Inhibition of the activity by inhibitory compounds was read after 30 min pre-incubation with the chymase at room temperature in assay buffer without AAPF-substrate. The assay was then started by addition of the indicated concentration of AAPF-substrate.

Structure (SMILES) | IC50
Cc1c(C(C2=C(O)C(C(C)C)N(C)C2=O)c2ccccc2)[nH]c2ccc(F)cc12 (stereo not shown) [Example 11, 3-[(5-Fluoro-3-methyl-1H-indol-2-yl)-phenyl-methyl]-4-hydroxy-5-isopropyl-1-methyl-1,5-dihydro-pyrrol-2-one] | 13 nM
CC(=O)NCCc1c(C(C2=C(O)C(Cc3ccccc3)OC2=O)c2ccccc2)[nH]c2cc(F)ccc12 (stereo not shown) [Example 16, N-(2-{2-[(5-Benzyl-4-hydroxy-2-oxo-2,5-dihydro-furan-3-yl)-phenyl-methyl]-6-fluoro-1H-indol-3-yl}-ethyl)-acetamide] | 24 nM
CC(=O)NCCc1c(C(C2=C(O)C(c3ccccc3)CC2=O)c2ccccc2)[nH]c2cc(F)ccc12 (stereo not shown) [Example 43, N-(2-{6-Fluoro-2-[(2-hydroxy-5-oxo-3-phenyl-cyclopent-1-enyl)-phenyl-methyl]-1H-indol-3-yl}-ethyl)-acetamide] | 3 nM
CC(=O)NCc1c(C(C2=C(O)[C@@](C)(c3ccccc3)NC2=O)c2ccccc2)[nH]c2cc(C)ccc12 (stereo partly drawn) [Example 63, N-{2-[((R)-4-Hydroxy-5-methyl-2-oxo-5-phenyl-2,5-dihydro-1H-pyrrol-3-yl)-phenyl-methyl]-6-methyl-1H-indol-3-ylmethyl}-acetamide] | 10 nM
Cc1c(C(C2=C(O)[C@@](C)(c3ccccc3)NC2=O)c2ccccc2)[nH]c2ccc(F)cc12 (stereo partly drawn) [Example 67, (R)-3-[(5-Fluoro-3-methyl-1H-indol-2-yl)-phenyl-methyl]-4-hydroxy-5-methyl-5-phenyl-1,5-dihydro-pyrrol-2-one] | 5 nM
CC(=O)NCc1c(C(C2=C(O)[C@@](C)(c3ccccc3)OC2=O)c2ccccc2)[nH]c2cc(C)ccc12 (stereo partly drawn) [Example 72, N-{2-[((R)-4-Hydroxy-5-methyl-2-oxo-5-phenyl-2,5-dihydro-furan-3-yl)-phenyl-methyl]-6-methyl-1H-indol-3-ylmethyl}-acetamide] | 15 nM
Cc1c(C(C2=C(O)C(c3ccccc3)CC2=O)c2ccccc2)[nH]c2ccc(F)cc12 (stereo not shown) [Example 79, 2-[(5-Fluoro-3-methyl-1H-indol-2-yl)-phenyl-methyl]-3-hydroxy-4-phenyl-cyclopent-2-enone] | 2 nM
